Several values for one entry are separate records, joined by “and”; a condition that tells them apart may be missing. Equal values may be shown once.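 In this assay, cells in 96-well plates receive the compound at five concentrations for 48 hours. Endpoints are linearly interpolated between the surrounding concentrations. GI50 is the concentration that inhibits growth by half. Definition used: TGI = concentration required for complete inhibition of growth.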
Legend:
Assay in all cases: inhibition of tumour cell growth, NCI panel, 48 h
CAKI-1 renal = test system: CAKI-1 renal
EKVX NSCLC = test system: EKVX NSCLC
NCI/ADR-RES ovarian = test system: NCI/ADR-RES ovarian
SF-539 CNS = test system: SF-539 CNS
786-0 renal = test system: 786-0 renal
A498 renal = test system: A498 renal
NCI-H226 lung = test system: NCI-H226 lung
HOP-62 NSCLC = test system: HOP-62 NSCLC
OVCAR-4 ovarian = test system: OVCAR-4 ovarian
PC-3 prostate = test system: PC-3 prostate

For `C/C(=N\NC(=O)c1ccccc1O)c1cccc(/C(C)=N/NC(=O)c2ccccc2O)n1`, the TGI (CAKI-1 renal) was over 100000 nM, the GI50 (EKVX NSCLC) was 317 nM and the TGI (EKVX NSCLC) was over 100000 nM. For the same compound, the GI50 (NCI/ADR-RES ovarian) was over 100000 nM, the TGI (NCI/ADR-RES ovarian) was over 100000 nM and the GI50 (SF-539 CNS) was 5960 nM and 918 nM. The TGI (SF-539 CNS) was 23300 nM and > 100000 nM, the GI50 (786-0 renal) was 616 nM and the TGI (786-0 renal) was 45600 nM and 18400 nM. The GI50 (A498 renal) was 2420 nM, the TGI (A498 renal) was > 100000 nM and 16700 nM and the GI50 (NCI-H226 lung) was 5800 nM and 3790 nM. For the same compound, the TGI (NCI-H226 lung) was over 100000 nM, the GI50 (HOP-62 NSCLC) was 467 nM and the TGI (HOP-62 NSCLC) was 31700 nM and 6420 nM. It also gave a GI50 (OVCAR-4 ovarian) of 15900 nM, a TGI (OVCAR-4 ovarian) of over 100000 nM and a GI50 (PC-3 prostate) of 626 nM. For the same compound, the TGI (PC-3 prostate) was over 100000 nM.

`Nc1ncnc2c(C3OC(CO)C(O)C3O)[nH]nc12` (configuration not stated) was tested, and the GI50 (CAKI-1 renal) was 36.5 nM and 61 nM, the TGI (CAKI-1 renal) was 281 nM and 214 nM and the GI50 (EKVX NSCLC) was 1600 nM. For the same compound, the GI50 (NCI/ADR-RES ovarian) was 48.4 nM, the TGI (NCI/ADR-RES ovarian) was 2850 nM and 1170 nM and the GI50 (SF-539 CNS) was 271 nM. The TGI (SF-539 CNS) was 2320 nM and 5870 nM, the GI50 (786-0 renal) was 54.4 nM and the TGI (786-0 renal) was 5650 nM. The GI50 (A498 renal) was 203 nM, the TGI (A498 renal) was 3980 nM and 4780 nM and the GI50 (NCI-H226 lung) was 529 nM and 793 nM. For the same compound, the TGI (NCI-H226 lung) was 5830 nM and 10700 nM, the GI50 (HOP-62 NSCLC) was 123 nM and the GI50 (OVCAR-4 ovarian) was 116 nM. For the same compound, the TGI (OVCAR-4 ovarian) was 3510 nM and 2300 nM, the GI50 (PC-3 prostate) was 47.4 nM and the TGI (PC-3 prostate) was 8970 nM.
